1 compound from paper PMC5159850, “An adenylyl cyclase with a phosphodiesterase domain in basal plants with a motile sperm system” (Scientific Reports, 2016) can be followed below.

The target of the test is T1, His-MpCAPE-PDE (Marchantia polymorpha, UniProt A0A1V1FXL5).
T1 construct: gene CAPE; N-terminal PDE domain 101-479 of 1610-residue MpCAPE; 6xHis and T7 tags (pET28a); E. coli Rosetta2(DE3)pLysS host; partially purified on Ni column
Put plainly: reverse-phase HPLC of AMP or GMP formed, […] nm. Format: biochemical. The conditions noted are these: 0.5 mM cGMP, 0.5 mM MgCl2, MnCl2 or FeCl2, Tris-HCl pH 8.0, 37 °C, 20 min; partially purified protein.

T1 sequence (A0A1V1FXL5 entry or part of it): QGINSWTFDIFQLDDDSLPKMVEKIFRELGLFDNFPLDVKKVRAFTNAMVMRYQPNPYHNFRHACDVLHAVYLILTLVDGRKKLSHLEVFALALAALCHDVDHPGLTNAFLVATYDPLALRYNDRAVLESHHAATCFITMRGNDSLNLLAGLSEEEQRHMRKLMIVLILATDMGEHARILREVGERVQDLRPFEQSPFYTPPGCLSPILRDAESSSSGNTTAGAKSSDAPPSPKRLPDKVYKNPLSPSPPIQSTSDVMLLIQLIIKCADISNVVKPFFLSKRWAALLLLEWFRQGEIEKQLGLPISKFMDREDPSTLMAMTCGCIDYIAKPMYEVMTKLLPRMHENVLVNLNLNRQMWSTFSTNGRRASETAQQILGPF

Consider `Nc1nc2c(ncn2[C@@H]2O[C@@H]3COP(=O)(O)O[C@H]3[C@H]2O)c(=O)[nH]1` [cGMP], for which the “reverse-phase HPLC of AMP or GMP formed, 259 nm” value is “The result showed that His-MpCAPE-PDE hydrolyzed both cAMP and cGMP”.
